Patent US20220411448A1, “CHROMENE-4-ONE DERIVATIVES AS BRAIN-DERIVED NEUROTROPHIC FACTOR (BDNF) MIMETICS” (FLORATEK PHARMA AG, priority 2019, published 2022)

Test system: primary cultures of cortical neurons
Assay: Primary neuronal culture viability (MTT assay)
Type: cell-based, mouse
Conditions: primary neuron culture, 24 hours
Method: For neuronal cultures, primary cultures of cortical neurons were prepared from embryonic day 17 (E17) OF1 mice embryos (Charles River Laboratories) as previously described [Allaman I., Pellerin L., Magistretti P. J. (2004) Glucocorticoids modulate neurotransmitter-induced glycogen metabolism in cultured cortical astrocytes. J. Neurochem. 88, 900-908] or from C57BL/6JRccHsd mice at E18. Animals were sacrificed and embryos were dissected in Calcium and Magnesium free Hanks Balanced Salt Solution (CMF-HBSS) containing 15 mM HEPES and 10 mM NaHCO3, pH 7.2. Embryos were decapitated, skin and skull gently removed and hemispheres were separated. […]
The MTT assay was conducted according to manufacturer's instructions (Invitrogen/Molecular Probes, Eugene, Oreg.) and was measured using a plate reader at an absorbance wavelength of 570 nm. Cell survival rate was expressed either as the absorbance values or as optical density (OD), with values calculated as % of controls.
Primary neuronal culture viability in the presence of Compound A/SND118 Primary neuron culture was prepared as described and treated with Compound A/SND118 at various concentrations for 24 hours. Cellular viability was measured using MTT assay as described.

## O=c1cc(-c2ccc(CCCC[P+](c3ccccc3)(c3ccccc3)c3ccccc3)cc2)oc2c(O)c(O)ccc12 [SND118, 4-[4-(7,8-dihydroxy-4-oxo-chromen-2-yl)phenyl]butyltriphenylphosphonium bromide]
  Cellular viability (MTT): concentration up to which not toxic: ≤ 10 µM
